Assay results from patent publication US20050282743A1, “Molecular interactions in cells” (Arbor Vita Corporation, priority 2001, published 2005).
Ends that are not written are not given here. Peptide text beside a SMILES is read from it. * marks the point of attachment. Biotin = O=C1N[C@H]2[C@H](CS[C@H]2CCCCC(=O)*)N1

Assays:
Test in all cases: G' assay (10 uM PL peptide), results of TABLE 7 and TABLE 12
Format in all cases: binding
[1] = biological target: T1, PDZ protein (GST-PDZ fusion) (Homo sapiens, UniProt Q9UPQ7); settings: PDZ KIAA1095, PDZ Domain 1
T1 construct: made in house; host or cells: E. coli (DH5alpha, BL21 or JM109)
T1 sequence (Q9UPQ7 1-1066): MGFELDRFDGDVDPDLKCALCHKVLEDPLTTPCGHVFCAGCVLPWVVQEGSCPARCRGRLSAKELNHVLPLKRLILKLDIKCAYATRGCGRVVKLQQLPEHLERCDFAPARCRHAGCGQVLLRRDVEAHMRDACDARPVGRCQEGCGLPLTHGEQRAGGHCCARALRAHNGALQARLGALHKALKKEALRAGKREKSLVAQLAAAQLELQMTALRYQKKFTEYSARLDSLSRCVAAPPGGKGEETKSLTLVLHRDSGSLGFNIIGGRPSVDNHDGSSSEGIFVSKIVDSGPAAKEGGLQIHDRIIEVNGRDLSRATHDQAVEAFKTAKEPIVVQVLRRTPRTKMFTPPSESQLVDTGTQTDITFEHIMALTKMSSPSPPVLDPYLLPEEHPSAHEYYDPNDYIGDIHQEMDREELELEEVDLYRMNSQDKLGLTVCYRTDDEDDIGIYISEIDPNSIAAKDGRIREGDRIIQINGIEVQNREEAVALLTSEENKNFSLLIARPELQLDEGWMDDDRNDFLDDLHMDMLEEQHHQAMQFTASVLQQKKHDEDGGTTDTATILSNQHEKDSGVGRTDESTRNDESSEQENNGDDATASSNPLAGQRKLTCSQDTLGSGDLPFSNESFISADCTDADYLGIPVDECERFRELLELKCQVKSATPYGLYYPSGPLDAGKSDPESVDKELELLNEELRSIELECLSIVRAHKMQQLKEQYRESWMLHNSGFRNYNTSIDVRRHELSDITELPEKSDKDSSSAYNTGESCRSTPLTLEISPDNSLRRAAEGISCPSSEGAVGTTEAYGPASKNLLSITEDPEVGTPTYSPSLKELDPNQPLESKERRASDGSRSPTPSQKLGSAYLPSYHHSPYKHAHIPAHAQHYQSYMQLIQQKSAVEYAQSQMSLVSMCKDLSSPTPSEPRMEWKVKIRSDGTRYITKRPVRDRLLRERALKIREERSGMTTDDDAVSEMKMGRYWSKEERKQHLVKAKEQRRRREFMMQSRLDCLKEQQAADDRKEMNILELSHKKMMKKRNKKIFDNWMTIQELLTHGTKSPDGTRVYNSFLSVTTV
Summary of the method: (§1)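 Binding classes derive from A450 nm of bound biotin-tagged PL peptide. A score of 5 needs A450 above 4 in more than two repeats.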

[2] = biological target: T2, PDZ protein (GST-PDZ fusion) (Homo sapiens, UniProt P55196); settings: PDZ AF6, PDZ Domain 1
T2 construct: made in house; host or cells: E. coli (DH5alpha, BL21 or JM109)
T2 sequence (P55196 whole entry, the tested form may be a part): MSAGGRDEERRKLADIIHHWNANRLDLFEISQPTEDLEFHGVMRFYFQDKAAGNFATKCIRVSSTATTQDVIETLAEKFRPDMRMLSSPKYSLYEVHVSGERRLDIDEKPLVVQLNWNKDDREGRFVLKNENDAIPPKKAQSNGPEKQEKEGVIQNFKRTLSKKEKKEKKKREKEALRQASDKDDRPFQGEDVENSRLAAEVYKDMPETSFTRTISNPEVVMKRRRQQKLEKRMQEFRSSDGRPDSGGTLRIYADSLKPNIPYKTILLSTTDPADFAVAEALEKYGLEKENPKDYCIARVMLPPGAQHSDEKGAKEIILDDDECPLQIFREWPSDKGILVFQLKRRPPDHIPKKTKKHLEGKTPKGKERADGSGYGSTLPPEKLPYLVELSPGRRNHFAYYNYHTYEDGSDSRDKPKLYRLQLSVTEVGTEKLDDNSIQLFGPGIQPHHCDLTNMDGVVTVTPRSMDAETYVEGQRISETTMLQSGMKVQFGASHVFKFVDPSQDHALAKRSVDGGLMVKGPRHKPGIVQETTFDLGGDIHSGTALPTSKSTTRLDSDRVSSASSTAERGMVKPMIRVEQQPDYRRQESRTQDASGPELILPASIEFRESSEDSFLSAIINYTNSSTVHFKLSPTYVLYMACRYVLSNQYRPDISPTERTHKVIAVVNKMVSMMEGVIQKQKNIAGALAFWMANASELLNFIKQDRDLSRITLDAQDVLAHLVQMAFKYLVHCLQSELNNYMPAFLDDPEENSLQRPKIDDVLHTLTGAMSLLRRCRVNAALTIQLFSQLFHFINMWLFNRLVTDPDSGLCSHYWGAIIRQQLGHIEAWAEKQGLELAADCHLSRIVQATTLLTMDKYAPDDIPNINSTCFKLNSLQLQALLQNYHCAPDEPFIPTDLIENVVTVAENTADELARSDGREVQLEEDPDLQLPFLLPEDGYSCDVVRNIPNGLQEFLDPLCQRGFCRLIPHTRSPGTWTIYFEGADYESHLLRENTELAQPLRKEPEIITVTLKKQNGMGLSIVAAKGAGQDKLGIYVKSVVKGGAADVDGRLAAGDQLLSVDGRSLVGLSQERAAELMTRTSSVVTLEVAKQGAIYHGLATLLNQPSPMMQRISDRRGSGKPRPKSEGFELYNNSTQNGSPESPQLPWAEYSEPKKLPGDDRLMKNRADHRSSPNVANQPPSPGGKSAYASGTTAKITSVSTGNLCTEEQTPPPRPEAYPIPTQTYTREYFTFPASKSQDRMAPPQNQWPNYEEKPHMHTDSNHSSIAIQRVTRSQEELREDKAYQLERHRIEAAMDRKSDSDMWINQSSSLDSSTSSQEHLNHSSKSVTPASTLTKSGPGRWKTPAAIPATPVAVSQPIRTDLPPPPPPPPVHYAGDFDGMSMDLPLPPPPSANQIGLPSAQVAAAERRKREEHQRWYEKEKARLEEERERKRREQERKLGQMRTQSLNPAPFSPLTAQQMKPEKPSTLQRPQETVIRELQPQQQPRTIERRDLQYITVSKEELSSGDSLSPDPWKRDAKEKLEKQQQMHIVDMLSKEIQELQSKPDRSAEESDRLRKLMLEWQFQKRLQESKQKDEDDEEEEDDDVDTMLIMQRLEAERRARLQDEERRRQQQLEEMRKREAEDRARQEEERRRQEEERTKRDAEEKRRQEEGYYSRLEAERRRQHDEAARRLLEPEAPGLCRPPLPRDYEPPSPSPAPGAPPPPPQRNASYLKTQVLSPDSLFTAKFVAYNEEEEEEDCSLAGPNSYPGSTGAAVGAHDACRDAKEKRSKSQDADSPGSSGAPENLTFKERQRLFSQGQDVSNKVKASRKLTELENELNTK
Summary of the method: as §1

[3] = biological target: T3, PDZ protein (GST-PDZ fusion) (Homo sapiens, UniProt Q9ULJ8); settings: PDZ KIAA1222, PDZ Domain 1
T3 construct: made in house; host or cells: E. coli (DH5alpha, BL21 or JM109)
T3 sequence (Q9ULJ8 whole entry, the tested form may be a part): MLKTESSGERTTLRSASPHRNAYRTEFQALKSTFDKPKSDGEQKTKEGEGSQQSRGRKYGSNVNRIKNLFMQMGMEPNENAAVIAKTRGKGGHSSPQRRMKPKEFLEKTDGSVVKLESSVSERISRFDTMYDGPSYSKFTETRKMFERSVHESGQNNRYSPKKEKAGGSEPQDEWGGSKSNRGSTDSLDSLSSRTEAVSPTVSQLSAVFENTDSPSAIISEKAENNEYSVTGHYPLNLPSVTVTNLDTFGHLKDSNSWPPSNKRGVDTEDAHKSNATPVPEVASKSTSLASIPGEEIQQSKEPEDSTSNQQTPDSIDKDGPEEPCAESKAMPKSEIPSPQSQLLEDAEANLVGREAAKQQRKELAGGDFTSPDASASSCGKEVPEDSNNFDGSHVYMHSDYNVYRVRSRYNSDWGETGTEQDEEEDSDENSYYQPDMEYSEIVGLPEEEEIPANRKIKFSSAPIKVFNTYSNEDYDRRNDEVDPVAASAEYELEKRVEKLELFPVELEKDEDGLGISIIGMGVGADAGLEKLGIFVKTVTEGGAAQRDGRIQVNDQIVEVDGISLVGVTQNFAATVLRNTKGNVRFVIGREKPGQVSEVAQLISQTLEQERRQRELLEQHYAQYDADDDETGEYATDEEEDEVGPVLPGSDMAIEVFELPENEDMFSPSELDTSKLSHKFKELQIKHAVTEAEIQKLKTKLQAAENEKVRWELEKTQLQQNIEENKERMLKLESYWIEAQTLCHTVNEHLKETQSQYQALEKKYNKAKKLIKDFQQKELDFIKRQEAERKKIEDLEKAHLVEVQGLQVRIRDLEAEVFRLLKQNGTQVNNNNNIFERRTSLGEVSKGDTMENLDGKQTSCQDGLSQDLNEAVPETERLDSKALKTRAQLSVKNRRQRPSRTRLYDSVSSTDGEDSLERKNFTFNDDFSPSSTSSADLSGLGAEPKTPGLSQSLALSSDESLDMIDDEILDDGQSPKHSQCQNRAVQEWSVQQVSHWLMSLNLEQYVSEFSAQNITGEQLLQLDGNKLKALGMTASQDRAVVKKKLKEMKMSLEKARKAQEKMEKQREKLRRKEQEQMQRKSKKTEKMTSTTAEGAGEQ
Summary of the method: as §1

[4] = biological target: T4, PDZ protein (GST-PDZ fusion) (Homo sapiens, UniProt O00560); settings: PDZ hSyntenin, PDZ Domain 1
T4 construct: made in house; host or cells: E. coli (DH5alpha, BL21 or JM109)
T4 sequence (O00560 1-298): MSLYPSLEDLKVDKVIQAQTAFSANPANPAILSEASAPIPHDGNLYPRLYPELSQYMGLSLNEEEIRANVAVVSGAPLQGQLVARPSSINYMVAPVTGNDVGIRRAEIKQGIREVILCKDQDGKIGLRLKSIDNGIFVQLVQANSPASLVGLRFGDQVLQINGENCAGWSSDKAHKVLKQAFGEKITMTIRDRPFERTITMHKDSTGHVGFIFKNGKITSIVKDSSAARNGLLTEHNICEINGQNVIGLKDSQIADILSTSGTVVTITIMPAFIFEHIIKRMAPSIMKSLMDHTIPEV
Summary of the method: as §1

CC(C)C[C@H](NC(=O)[C@H](CCCNC(=N)N)NC(=O)CNC(=O)CNC(=O)[C@H](CCCNC(=N)N)NC(=O)[C@H](C)NC(=O)[C@@H]1CCCN1C(=O)[C@H](CCCNC(=N)N)NC(=O)CNC(=O)CNC(=O)[C@@H](NC(=O)[C@H](C)NC(=O)CCCC[C@@H]1SC[C@@H]2NC(=O)N[C@@H]21)C(C)C)C(=O)N[C@@H](CCC(N)=O)C(=O)NCC(=O)N[C@@H](CCCNC(=N)N)C(=O)N[C@@H](CCCNC(=N)N)C(=O)N[C@@H](CCC(N)=O)C(=O)N[C@H](C(=O)N[C@@H](CCC(N)=O)C(=O)N[C@H](C(=O)O)C(C)C)[C@@H](C)O [HPV E6 58 (modified)] (Biotin-AVGGRPARGGRLQGRRQTQV-OH; C-terminus assumed)
Classification [1]: 1 (A450 nm 0-1)

GPVPGEPAKPKTSAHHATFV (Biotin-GPVPGEPAKPKTSAHHATFV)
Classification [2]: 1 (A450 nm 0-1)

KTMPAATYRLLTGQEQPVYL (Biotin-KTMPAATYRLLTGQEQPVYL) [MINT-3]
Classification [2]: 1 (A450 nm 0-1)

CC[C@H](C)[C@H](NC(=O)CNC(=O)[C@H](CO)NC(=O)[C@H](Cc1ccccc1)NC(=O)[C@@H](NC(=O)[C@H](CS)NC(=O)CNC(=O)CNC(=O)[C@H](C)NC(=O)[C@@H]1CCCN1C(=O)[C@@H](NC(=O)[C@@H]1CCCN1C(=O)CCCC[C@@H]1SC[C@@H]2NC(=O)N[C@@H]21)[C@@H](C)CC)[C@@H](C)O)C(=O)N[C@@H](Cc1ccccc1)C(=O)N1CCC[C@H]1C(=O)N[C@H](C(=O)N[C@@H](CC(C)C)C(=O)N[C@H](C(=O)N[C@@H](CO)C(=O)N1CCC[C@H]1C(=O)N[C@@H](CC(C)C)C(=O)O)[C@@H](C)O)[C@@H](C)O [KIA 1481] (Biotin-PIPAGGCTFSGIFPTLTSPL-OH; C-terminus assumed)
Classification [1]: 1 (A450 nm 0-1)

CC[C@H](C)[C@H](NC(=O)[C@H](CCCCN)NC(=O)[C@@H](NC(=O)[C@H](CO)NC(=O)[C@@H]1CCCN1C(=O)[C@H](Cc1ccccc1)NC(=O)[C@@H](NC(=O)[C@@H](NC(=O)[C@H](CCCNC(=N)N)NC(=O)[C@H](CCC(=O)O)NC(=O)[C@H](CC(C)C)NC(=O)[C@H](CC(C)C)NC(=O)[C@H](CC(C)C)NC(=O)[C@@H](NC(=O)CNC(=O)[C@@H](NC(=O)CCCC[C@@H]1SC[C@@H]2NC(=O)N[C@@H]21)C(C)C)[C@@H](C)O)C(C)C)[C@@H](C)CC)C(C)C)C(=O)N[C@@H](C)C(=O)N[C@H](C(=O)N[C@@H](CC(C)C)C(=O)N[C@H](C(=O)O)C(C)C)[C@@H](C)O [Adenovirus E4 Type9]
Classification ([3]; PL peptide 10 uM): 1 (A450 nm 0-1)

ELLQFCRTPNPALKNGQYWV (Biotin-ELLQFCRTPNPALKNGQYWV)
Classification [2]: 5 (A450 nm of 4 more than 2× repeated)
Classification [4]: 2 (A450 nm 1-2)

CC[C@H](C)[C@H](NC(=O)[C@H](Cc1ccc(O)cc1)NC(=O)[C@H](CC(C)C)NC(=O)[C@H](CCC(N)=O)NC(=O)[C@H](Cc1c[nH]cn1)NC(=O)[C@H](CO)NC(=O)[C@H](C)NC(=O)[C@H](CC(C)C)NC(=O)[C@@H](NC(=O)[C@H](CC(=O)O)NC(=O)[C@H](CCSC)NC(=O)[C@H](Cc1ccccc1)NC(=O)[C@@H]1CCCN1C(=O)[C@H](CCCNC(=N)N)NC(=O)[C@@H](NC(=O)[C@H](CC(C)C)NC(=O)[C@H](CC(N)=O)NC(=O)[C@H](CC(=O)O)NC(=O)[C@@H](NC(=O)[C@H](CO)NC(=O)CCCC[C@@H]1SC[C@@H]2NC(=O)N[C@@H]21)[C@@H](C)O)C(C)C)[C@@H](C)O)C(=O)O [presenilin-2] (Biotin-STDNLVRPFMDTLASHQLYI-OH; C-terminus assumed)
Classification [2]: 3 (A450 nm 2-3)

CC(C)C[C@H](NC(=O)[C@H](C)NC(=O)[C@@H](NC(=O)[C@H](CCC(=O)O)NC(=O)[C@H](CCCNC(=N)N)NC(=O)[C@H](CCCNC(=N)N)NC(=O)CNC(=O)[C@H](CCC(N)=O)NC(=O)[C@H](CC(C)C)NC(=O)[C@H](CCCNC(=N)N)NC(=O)CNC(=O)CNC(=O)[C@H](CCCNC(=N)N)NC(=O)[C@H](C)NC(=O)[C@H](CO)NC(=O)[C@H](CCCNC(=N)N)NC(=O)CNC(=O)CNC(=O)[C@H](C)NC(=O)[C@H](C)NC(=O)CCCC[C@@H]1SC[C@@H]2NC(=O)N[C@@H]21)[C@@H](C)O)C(=O)O [HPV E6 33 (modified)] (Biotin-AAGGRSARGGRLQGRRETAL-OH; C-terminus assumed)
Classification [1]: 5 (A450 nm of 4 more than 2× repeated)

KTMPAAMFRLLTGQETPLYI (Biotin-KTMPAAMFRLLTGQETPLYI) [MINT-2]
Classification [3]: 1 (A450 nm 0-1)
Classification [4]: 2 (A450 nm 1-2)

CC[C@H](C)[C@H](NC(=O)[C@H](Cc1ccc(O)cc1)NC(=O)[C@@H](NC(=O)[C@@H]1CCCN1C(=O)[C@H](CCC(N)=O)NC(=O)[C@H](CCC(=O)O)NC(=O)[C@H](CCC(N)=O)NC(=O)[C@H](C)NC(=O)[C@@H](NC(=O)[C@H](CC(C)C)NC(=O)[C@H](CC(C)C)NC(=O)[C@H](CCCNC(=N)N)NC(=O)[C@H](Cc1ccc(O)cc1)NC(=O)[C@H](CCSC)NC(=O)[C@H](C)NC(=O)[C@H](C)NC(=O)[C@@H]1CCCN1C(=O)[C@H](CCSC)NC(=O)[C@@H](NC(=O)[C@H](CCCCN)NC(=O)CCCC[C@@H]1SC[C@@H]2NC(=O)N[C@@H]21)[C@@H](C)O)[C@@H](C)O)C(C)C)C(=O)O [MINT-1] (Biotin-KTMPAAMYRLLTAQEQPVYI-OH; C-terminus assumed)
Classification [3]: 1 (A450 nm 0-1)
Classification [4]: 3 (A450 nm 2-3)

TQGFPGPATWRRISSLESEV
Classification [1]: 1 (A450 nm 0-1)

CSCC[C@H](NC(=O)[C@H](C)NC(=O)[C@H](CCCNC(=N)N)NC(=O)CNC(=O)[C@@H](NC(=O)[C@H](Cc1c[nH]c2ccccc12)NC(=O)[C@H](CCCNC(=N)N)NC(=O)CNC(=O)CCCC[C@@H]1SC[C@@H]2NC(=O)N[C@@H]21)[C@@H](C)O)C(=O)N[C@@H](CO)C(=O)N[C@@H](C)C(=O)N[C@@H](Cc1c[nH]c2ccccc12)C(=O)N[C@@H](CCCCN)C(=O)N1CCC[C@H]1C(=O)N[C@H](C(=O)N[C@@H](CCCNC(=N)N)C(=O)N[C@@H](CCCNC(=N)N)C(=O)N[C@@H](CCC(=O)O)C(=O)N[C@H](C(=O)N[C@@H](CCC(=O)O)C(=O)N[C@H](C(=O)O)C(C)C)[C@@H](C)O)[C@@H](C)O [HPV E6 #35 (modified)] (Biotin-GRWTGRAMSAWKPTRRETEV-OH; C-terminus assumed)
Classification [1]: 4 (A450 nm 3-4)
